US7507739B2, “6-[(substituted)phenyl]triazolopyrimidines as anticancer agents” (Wyeth, priority 2003, dated 2009)

Experiments:
[1] = test system: KB cells; assay: MTS cytotoxicity test with KB cells; type: cell-based; settings: Homo sapiens; KB cells, MTS; read-out: IC50 KB
From the text: (§1) Human cancer cell lines, unless otherwise noted, are obtained from the American Type Culture Collection (Rockville, Md.). The following drug-sensitive parental cell lines, and their derived drug-resistant counterparts, are obtained from the originators as listed: (a) S1 (parental line from a subclone of human colon carcinoma line LS174T) and derived S1-M1-3.2 (herein called S1-M1) which expresses the MXR drug transporter protein, are provided by Dr. L. Greenberger, Wyeth Research (Rabindran, S. K., He, H., Singh, M., Brown, E., Collins, K. I., Annable, T., and Greenberger, L. M. Reversal of a novel multidrug resistance mechanism in human colon carcinoma cells by fumitremorgin C. Cancer Res., 58:5850-5858,1998); (b) parental HL-60 human promyelocytic leukemia line and derived HL-60/ADR, which expresses the MRP1 drug transporter protein, are provided by Dr. M. Center, University of Kansas (McGrath, T., and Center, M. S. Adriamycin resistance in HL60 cells in the absence of detectable P-glycoprotein. Biochem. Biophys. […] J. Biol. Chem., 261: 7762-7770,1986) via Dr. L. Greenberger, Wyeth Research.
(§2) The assay, which is sold in kit form by Promega (Madison, Wis.; CellTiter 96 AQueous Non-Radioactive Cell Proliferation Assay), is based on the conversion by viable cells, but not by dead cells, of the tetrazolium salt, MTS (3-(4,5-dimethylthiazol-2-yl)-5-(3-carboxymethoxyphenyl)-2-(4-sulphophenyl)-2H-tetrazolium, inner salt), into a water-soluble colored formazan which is detected by spectrophotometry. Compounds are tested at nine concentrations, in order to determine IC50 values. For the test procedure, cells are harvested by trypsinization (or, in the case of non-adherent cells, by simple resuspension), washed, counted and distributed to wells of 96-well flat-bottom microtiter plates at 1000 cells per well in 200 μL of medium. In addition, one row of wells on a separate plate received cells as above (“time 0” plate). All plates are incubated at 37° in humidified 5% CO2 in air for about 24 hr.
(§3) On day 2, compounds for test are diluted and added to wells. Compounds are dissolved in DMSO at 10 mg/mL. For each compound, nine serial 2-fold dilutions are prepared in DMSO. Ten μL of each dilution in DMSO is transferred to 100 μL of medium, mixed well, and then 5 μL of this dilution is transferred in quadruplicate to wells containing cells. […] Plates are returned to the incubator for three days. At the time of drug addition to the experimental plates, the MTS assay is run on the “time 0” plate. This produced the “time 0 MTS value” which is related to the number of viable cells per well at the time of drug addition.
(§4) After three days of culture with test compounds (day 5 overall), the MTS assay is done on all wells of the experimental plates. The absorbance values of the quadruplicate sample wells are averaged and divided by the average of the “time 0” values. […] The nine values for each compound are plotted against concentration, and the concentration that produced a relative color yield half way between the maximum and minimum is taken as the IC50 value.
(§5) The KB lines express different amounts of the P-glycoprotein (MDR1) membrane pump which produces resistance to the action of many cytotoxic compounds, including paclitaxel and vincristine. The parental KB line expresses no P-glycoprotein, KB-8-5 expresses moderate levels of the protein, and KB-V1 expresses very high levels.

[2] = test system: HL-60/ADR cells; assay: MTS cytotoxicity test with HL-60/ADR cells (MRP1); type: cell-based, human; settings: for Ratio: IC50 on HL-60/ADR cells/IC50 on HL-60 cells
From the text: as §1, §2, §3, §4
(§6) HL-60/ADR cells overexpress the multidrug resistance protein MRP1 which mediates resistance to some chemotherapeutics (Gottesman, M. M., Fojo, T., and Bates, S. E. Multidrug resistance in cancer: role of ATP-dependent transporters. Nature Rev. Cancer, 2: 48-58, 2002). The IC50 values of representative examples of this invention, as well as reference compounds, on HL-60/ADR are compared to values on the sensitive parental HL-60 line.

[3] = test system: S1-M1 cells; assay: MTS cytotoxicity test with S1-M1 cells (MXR); type: cell-based, human; settings: for Ratio: IC50 on S1-M1 cells/IC50 on S1 cells; for IC50: Homo sapiens, S1-M1 cells, MTS, read-out: IC50 S1-M1
From the text: as §1, §2, §3, §4
as §6, with “S1-M1” for “HL-60/ADR”, “MXR transporter” for “multidrug resistance protein MRP1”, “Miltidrug” for “Multidrug”, “S1” for “HL-60”

[4] = test system: KB-8-5 cells; assay: MTS cytotoxicity test with KB-8-5 cells (moderate P-glycoprotein); type: cell-based, human; settings: for IC50: Homo sapiens, KB-8-5 cells, MTS, read-out: IC50 KB 8.5; for Ratio 8.5/KB: IC50 on KB 8.5 cells/IC50 on KB cells
From the text: as §1, §2, §3, §4, §5

[5] = test system: KB-V1 cells; assay: MTS cytotoxicity test with KB-V1 cells (very high P-glycoprotein); type: cell-based, human; settings: for IC50: Homo sapiens, KB-V1 cells, MTS; for Ratio VI/KB: IC50 on KB VI cells/IC50 on KB cells
From the text: as §1, §2, §3, §4, §5

[6] = test system: HL-60 cells; assay: MTS cytotoxicity test with HL-60 cells; type: cell-based; settings: Homo sapiens; HL-60 cells, MTS; read-out: IC50 HL-60
From the text: as §1, §2, §3, §4, §6

[7] = test system: S1 cells; assay: MTS cytotoxicity test with S1 cells; type: cell-based; settings: Homo sapiens
From the text: as §1, §2, §3, §4
as §6, with “S1-M1” for “HL-60/ADR”, “MXR transporter” for “multidrug resistance protein MRP1”, “Miltidrug” for “Multidrug”, “S1” for “HL-60”

Row | Structure (SMILES) | IC50 [1] [nM] | Ratio [2] | Ratio [3] | IC50 [4] [nM] | Ratio 8.5/KB [4] | IC50 [5] [nM] | Ratio VI/KB [5] | Ratio VI/KB ([5]; listed as doxorubicin) | IC50 [6] [nM] | IC50 [7] [nM] | IC50 [3] [nM] | Ratio ([3]; listed as mitoxantrone) | IC50 ([2]; Homo sapiens, HL60/ADR, HL-60/ADR cells, MTS, read-out: IC50 HL-60/ADR) [nM]
1 | COc1cccc2c1C(=O)c1c(O)c3c(c(O)c1C2=O)C[C@@](O)(C(=O)CO)C[C@@H]3O[C@H]1C[C@H](N)[C@H](O)[C@H](C)O1 [Doxorubicin, reference compound] | 23 | 93 | 74 | 70 | 3.0 | > 3000 | >130 | > 130 | 23 | 34 | – | – | –
2 | O=C1c2c(O)ccc(O)c2C(=O)c2c(NCCNCCO)ccc(NCCNCCO)c21 [Mitoxantrone, reference compound] | 25 | 17 | >300 | 27 | 1.1 | – | 77 | – | 9.5 | 10 | > 3000 | > 300 | –
3 | CC[C@@]1(O)C(=O)OCc2c1cc1n(c2=O)Cc2cc3ccccc3nc2-1 [Camptothecin, reference compound] | 24 | 1.4 | 1.9 | 33 | 1.4 | 39 | 1.6 | – | 12 | 8.9 | 17 | – | 17
